In patent US20130150340A1, “6-(4-Hydroxy-phenyl)-1H-pyrazolo[3,4-b]pyridine-4-carboxylic acid amide derivatives as kinase inhibitors” (SANOFI, priority 2011, published 2013):

Target: T1, human full-length recombinant PKC βII (Homo sapiens, UniProt P05771)
T1 construct: Active human full-length recombinant PKC βII; purchased Invitrogen GmbH, Darmstadt, Germany
Assay: Determination of PKC βII inhibition (Caliper mobility-shift kinase assay)
Type: biochemical
Conditions: example compounds at a final concentration of 1.14 μM (±0.15 μM); 60 min incubation at 32° C.
Description: Determination of PKC 3H Inhibition
PKC βII inhibition was determined according to the following protocol:
Active human full-length recombinant PKC βII and the peptide substrate, Fluorescein-RFARKGSLRQKNV, were purchased from Invitrogen GmbH, Darmstadt, Germany. Adenosine-5′-triphosphate (ATP), bovine serum albumine (BSA), dimethylsulphoxide (DMSO), 4-(2-hydroxyethyl)piperazine-1-ethanesulfonic acid (Hepes), Triton X-100, 1,2-Dioleoyl-sn-glycerol (DAG), L-α-Phosphatidyl-L-serine (PS), calcium chloride (CaCl2), and Pluronic F-68 were purchased from Sigma-Aldrich, Munich, Germany. Magnesium chloride, 1 M sodium hydroxide solution, 1M hydrochloric acid solution and EDTA were obtained from Merck Biosciences, Darmstadt, Germany.
Test compounds were diluted to three times the test concentration in buffer 1 (30 mM Hepes-NaOH, pH 7.4, 0.01% Pluronic F-68 and 3% (v/v) DMSO). The PKC βII enzyme was diluted to a concentration of 30 ng/ml in buffer 2 (30 mM Hepes-NaOH, pH 7.4, 15 mM MgCl2, 150 μM CaCl2, 150 μg/ml PS, 60 μg/ml DAG, and 0.045% (w/v) Triton X-100). The peptide substrate and ATP were diluted to concentrations of 3 μM and 120 μM, respectively, in buffer 2. Two μl of the compound solution were mixed with 2 μl of the diluted enzyme in a 384-well small volume microtiter plate (Greiner, Bio-One, Frickenhausen, Germany), and the kinase reaction was initiated by addition of 2 μl of the solution containing peptide substrate and ATP. After 60 min incubation at 32° C., the reaction was stopped by addition of 20 μl of a solution containing 130 mM Hepes-NaOH, pH 7.4, 0.0195% (v/v) Brij-35, 6.5 mM EDTA, 0.13% chip coating reagent 3 (Caliper Lifescience Inc, Hopkinton, Mass.) and 6.5% (v/v) DMSO. Phosphorylation of the substrate peptide was then detected on a Caliper 3000 instrument essentially as described by Pommereau et al (J. Biomol. Screening 2004, 9(5), […]), Separation conditions were as follows: Pressure −0.8 psi, upstream voltage −3000 V, downstream voltage −800 V. Positive controls (buffer 1 instead of compound) and negative controls (buffer 1 instead of compound and buffer 2 instead of kinase solution) were run in parallel on each plate. Fractional turnover (R) was determined as the height of the peak of the phosphorylated peptide product divided by the sum of the unphosphorylated substrate and phosphorylated product peak heights. Percent-inhibition values for the test compounds were determined using the formula
% Inhibition=100*(1−(Rcompound−Rnegative control)/(Rpositive control−Rnegative control).

T1 sequence (P05771 1-673 isoform P05771-2): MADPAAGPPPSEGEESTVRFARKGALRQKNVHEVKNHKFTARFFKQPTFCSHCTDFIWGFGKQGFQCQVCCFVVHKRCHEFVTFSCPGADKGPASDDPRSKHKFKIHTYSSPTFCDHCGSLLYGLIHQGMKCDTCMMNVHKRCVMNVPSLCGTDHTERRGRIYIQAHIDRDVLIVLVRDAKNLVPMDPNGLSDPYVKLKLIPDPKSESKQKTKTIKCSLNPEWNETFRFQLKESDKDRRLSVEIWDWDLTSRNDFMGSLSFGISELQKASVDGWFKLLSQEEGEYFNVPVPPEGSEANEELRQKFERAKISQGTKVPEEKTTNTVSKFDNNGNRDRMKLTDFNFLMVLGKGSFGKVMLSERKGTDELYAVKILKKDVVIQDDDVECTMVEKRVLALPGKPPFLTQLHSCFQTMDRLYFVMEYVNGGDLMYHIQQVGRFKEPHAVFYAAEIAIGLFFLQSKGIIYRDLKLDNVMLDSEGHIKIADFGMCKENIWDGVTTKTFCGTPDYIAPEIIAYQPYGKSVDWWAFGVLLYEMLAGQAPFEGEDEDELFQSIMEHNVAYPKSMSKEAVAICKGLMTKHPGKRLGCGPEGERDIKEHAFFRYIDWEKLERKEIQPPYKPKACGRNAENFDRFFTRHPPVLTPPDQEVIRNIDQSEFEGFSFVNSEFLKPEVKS

| inhibition at 1.14 µM | SMILES |
| --- | --- |
| 87% | CO[C@H]1CNC[C@@H]1NC(=O)c1cc(-c2ccc(O)cc2)nc2[nH]ncc12 (racemic) [Example 29, 6-(4-Hydroxy-phenyl)-1H-pyrazolo[3,4-b]pyridine-4-carboxylic acid (trans-4-methoxy-pyrrolidin-3-yl)-amide] |
| 55% | N[C@H]1C[C@@H]1NC(=O)c1cc(-c2ccc(O)cc2)nc2[nH]ncc12 (racemic) [Example 51, 6-(4-Hydroxy-phenyl)-1H-pyrazolo[3,4-b]pyridine-4-carboxylic acid (trans-2-amino-cyclopropyl)-amide] |
| 18% | CC1(C)CC(NC(=O)c2cc(-c3ccc(O)cc3)nc3[nH]ncc23)CC(C)(C)N1 [Example 1, 6-(4-Hydroxy-phenyl)-1H-pyrazolo[3,4-b]pyridine-4-carboxylic acid (2,2,6,6-tetramethyl-piperidin-4-yl)-amide] |
| 27% | O=C(NC1CCNCC1)c1cc(-c2ccc(O)cc2)nc2[nH]ncc12 [Example 2, 6-(4-Hydroxy-phenyl)-1H-pyrazolo[3,4-b]pyridine-4-carboxylic acid piperidin-4-ylamide] |
| 95% | NC1CCCN(C(=O)c2cc(-c3ccc(O)cc3)nc3[nH]ncc23)C1 (stereo not drawn) [Example 3, (3-Amino-piperidin-1-yl)-[6-(4-hydroxy-phenyl)-1H-pyrazolo[3,4-b]pyridin-4-yl]-methanone] |
| 88% | O=C(c1cc(-c2ccc(O)cc2)nc2[nH]ncc12)N1CCNCC1 [Example 4, [6-(4-Hydroxy-phenyl)-1H-pyrazolo[3,4-b]pyridin-4-yl]-piperazin-1-yl-methanone] |
| 85% | O=C(NC1CCNC1)c1cc(-c2ccc(O)cc2)nc2[nH]ncc12 (stereo not drawn) [Example 5, 6-(4-Hydroxy-phenyl)-1H-pyrazolo[3,4-b]pyridine-4-carboxylic acid pyrrolidin-3-ylamide] |
| 87% | CO[C@H]1CNC[C@@H]1NC(=O)c1cc(-c2ccc(O)cc2)nc2[nH]ncc12 [Example 6, 6-(4-Hydroxy-phenyl)-1H-pyrazolo[3,4-b]pyridine-4-carboxylic acid ((3S,4S)-4-methoxy-pyrrolidin-3-yl)-amide] |
| 84% | O=C(c1cc(-c2ccc(O)cc2)nc2[nH]ncc12)N1CCCNCC1 [Example 7, [1,4]Diazepan-1-yl-[6-(4-hydroxy-phenyl)-1H-pyrazolo[3,4-b]pyridin-4-yl]-methanone] |
| 46% | N[C@H]1CC[C@@H](NC(=O)c2cc(-c3ccc(O)cc3)nc3[nH]ncc23)CC1 [Example 8, 6-(4-Hydroxy-phenyl)-1H-pyrazolo[3,4-b]pyridine-4-carboxylic acid (cis-4-amino-cyclohexyl)-amide] |
| 82% | N[C@H]1CC[C@H](NC(=O)c2cc(-c3ccc(O)cc3)nc3[nH]ncc23)CC1 [Example 9, 6-(4-Hydroxy-phenyl)-1H-pyrazolo[3,4-b]pyridine-4-carboxylic acid (trans-4-amino-cyclohexyl)-amide] |
| 96% | CC1(C)CNCCN1C(=O)c1cc(-c2ccc(O)cc2)nc2[nH]ncc12 [Example 10, (2,2-Dimethyl-piperazin-1-yl)-[6-(4-hydroxy-phenyl)-1H-pyrazolo[3,4-b]pyridin-4-yl]-methanone] |
| 87% | N[C@H]1CC[C@H](CNC(=O)c2cc(-c3ccc(O)cc3)nc3[nH]ncc23)CC1 [Example 11, 6-(4-Hydroxy-phenyl)-1H-pyrazolo[3,4-b]pyridine-4-carboxylic acid (trans-4-amino-cyclohexylmethyl)-amide] |
| 46% | N[C@H]1CC[C@@H](CNC(=O)c2cc(-c3ccc(O)cc3)nc3[nH]ncc23)CC1 [Example 12, 6-(4-Hydroxy-phenyl)-1H-pyrazolo[3,4-b]pyridine-4-carboxylic acid (cis-4-amino-cyclohexylmethyl)-amide] |
| 39% | O=C(NCC1CNC1)c1cc(-c2ccc(O)cc2)nc2[nH]ncc12 [Example 13, 6-(4-Hydroxy-phenyl)-1H-pyrazolo[3,4-b]pyridine-4-carboxylic acid (azetidin-3-ylmethyl)-amide] |
| 69% | NC1CC(NC(=O)c2cc(-c3ccc(O)cc3)nc3[nH]ncc23)C1 (stereo not drawn) [Example 14, 6-(4-Hydroxy-phenyl)-1H-pyrazolo[3,4-b]pyridine-4-carboxylic acid (3-amino-cyclobutyl)-amide] |
| 94% | CC(C)C1CN(C(=O)c2cc(-c3ccc(O)cc3F)nc3[nH]ncc23)C(C)(C)CN1 (stereo not drawn) [Example 15, [6-(2-Fluoro-4-hydroxy-phenyl)-1H-pyrazolo[3,4-b]pyridin-4-yl]-(5-isopropyl-2,2-dimethyl-piperazin-1-yl)-methanone] |
| 66% | N[C@@H]1CCN(C(=O)c2cc(-c3ccc(O)cc3)nc3[nH]ncc23)C1 [Example 16, ((R)-3-Amino-pyrrolidin-1-yl)-[6-(4-hydroxy-phenyl)-1H-pyrazolo[3,4-b]-pyridin-4-yl]-methanone] |
| 64% | N[C@H]1CCN(C(=O)c2cc(-c3ccc(O)cc3)nc3[nH]ncc23)C1 [Example 17, ((S)-3-Amino-pyrrolidin-1-yl)-[6-(4-hydroxy-phenyl)-1H-pyrazolo[3,4-b]pyridin-4-yl]-methanone] |
| 83% | O=C(N[C@@H]1CCCNC1)c1cc(-c2ccc(O)cc2)nc2[nH]ncc12 [Example 19, 6-(4-Hydroxy-phenyl)-1H-pyrazolo[3,4-b]pyridine-4-carboxylic acid (R)-piperidin-3-ylamide] |
| 77% | O=C(c1cc(-c2ccc(O)cc2)nc2[nH]ncc12)N1CC2(CCNCC2)C1 [Example 20, (2,7-Diaza-spiro[3.5]non-2-yl)-[6-(4-hydroxy-phenyl)-1H-pyrazolo[3,4-b]pyridin-4-yl]-methanone] |
| 59% | O=C(c1cc(-c2ccc(O)cc2)nc2[nH]ncc12)N1CCC2(CC1)CNC2 [Example 21, (2,7-Diaza-spiro[3.5]non-7-yl)-[6-(4-hydroxy-phenyl)-1H-pyrazolo[3,4-b]pyridin-4-yl]-methanone] |
| 42% | O=C(c1cc(-c2ccc(O)cc2)nc2[nH]ncc12)N1CCC2(CCNCC2)C1 [Example 22, (2,8-Diaza-spiro[4.5]dec-2-yl)-[6-(4-hydroxy-phenyl)-1H-pyrazolo[3,4-b]pyridin-4-yl]-methanone] |
| 52% | O=C(c1cc(-c2ccc(O)cc2)nc2[nH]ncc12)N1CCC2(CCCNC2)C1 (stereo not drawn) [Example 23, (2,7-Diaza-spiro[4.5]dec-2-yl)-[6-(4-hydroxy-phenyl)-1H-pyrazolo[3,4-b]pyridin-4-yl]-methanone] |
| 29% | O=C(c1cc(-c2ccc(O)cc2)nc2[nH]ncc12)N1CCCC2(CCNC2)C1 (stereo not drawn) [Example 24, (2,7-Diaza-spiro[4.5]dec-7-yl)-[6-(4-hydroxy-phenyl)-1H-pyrazolo[3,4-b]pyridin-4-yl]-methanone] |
| 58% | O=C(c1cc(-c2ccc(O)cc2)nc2[nH]ncc12)N1CCC2(CCNC2)C1 (stereo not drawn) [Example 25, (2,7-Diaza-spiro[4.4]non-2-yl)-[6-(4-hydroxy-phenyl)-1H-pyrazolo[3,4-b]pyridin-4-yl]-methanone] |
| 36% | O=C(c1cc(-c2ccc(O)cc2)nc2[nH]ncc12)N1CCC2(CC1)CNCCO2 [Example 26, [6-(4-Hydroxy-phenyl)-1H-pyrazolo[3,4-b]pyridin-4-yl]-(1-oxa-4,9-diaza-spiro[5.5]undec-9-yl)-methanone] |
| 42% | O=C(c1cc(-c2ccc(O)cc2)nc2[nH]ncc12)N1CCOC2(CCCNC2)C1 (stereo not drawn) [Example 27, [6-(4-Hydroxy-phenyl)-1H-pyrazolo[3,4-b]pyridin-4-yl]-(1-oxa-4,8-diaza-spiro[5.5]undec-4-yl)-methanone] |
| 15% | O=C(c1cc(-c2ccc(O)cc2)nc2[nH]ncc12)N1CCCC2(CNCCO2)C1 (stereo not drawn) [Example 28, [6-(4-Hydroxy-phenyl)-1H-pyrazolo[3,4-b]pyridin-4-yl]-(1-oxa-4,8-diaza-spiro[5.5]undec-8-yl)-methanone] |

| SMILES | inhibition at 1.14 µM |
| --- | --- |
| O=C(N[C@H]1CN2CCC1CC2)c1cc(-c2ccc(O)cc2)nc2[nH]ncc12 [Example 18, 6-(4-Hydroxy-phenyl)-1H-pyrazolo[3,4-b]pyridine-4-carboxylic acid-(R)-(1-Aza-bicyclo[2.2.2]oct-3-yl)amide] | 72% |
